We go through four molecules from patent US20250099488A1, “ANTI-PARASITE COMPOUNDS” (AUSTRALIAN NATIONAL UNIVERSITY, priority 2022, published 2025).

“And” between values parts separate entries of the source, which are not always exact repeats. Identical values can stand only once. Like-named read-outs stand apart in the source and are kept apart here.

In data set [1] the test system is Toxoplasma gondii tachyzoites. Nature of the data set: Toxoplasma growth inhibition assay (tdTomato fluorescence). The format is cell-based. How it is done:
Fluorescent Toxoplasma gondii parasites were inoculated into an optical bottom 96-well plate containing confluent human foreskin fibroblast (HFF) host cells at a density of 2000 parasites/well, with a serial dilution of each compound, or media/DMSO alone. Plates were measured daily with a FluoStar Optima fluorescence plate reader at 540 nm excitation/590 nm emission for seven days, and the background fluorescence from the time 0 reading was subtracted from all other measurements.
Fluorescence was measured daily with a FluoStar Optima fluorescence plate reader for one week, and the background fluorescence from the time 0 reading was subtracted from all other measurements.
(§1) Growth inhibition data were normalised by subtracting background fluorescence, luminescence, absorbance, or percentage of cells from a no-growth or no-viability control (high drug concentration, no-parasite control, or time=0 measurement as specified), and expressed as a percentage of the growth or cell percentage in the negative control (culture media alone or solvent control) at the indicated timepoint (or to the highest measurement reached during the assay for FIG. 15B).

The test system of data set [2] is human hepatoma cells (Huh7). Nature of the data set: Huh7 hepatoma viability assay (CellTiter-Blue). The format is cell-based. As to conditions: 48 hours. As for the experimental part:
Huh7 hepatoma viability assays were conducted in the same manner as the P. berghei assays, with metabolic capacity (indicating viability) measured by incubation with CellTiter-Blue® (Promega) for 3 hours.
On the technique in general: Resazurin is reduced to fluorescent resorufin, in cell work by metabolically active cells.

For data set [3], the system named is human embryonic kidney cells (HEK293). In words: HEK293 cell viability assay (MTT). As to conditions: 96 hours. Type of data set: cell-based. How it is done: (§2) HEK293 cell viability assays began with 5000 cells per well. 10 μg/mL cycloheximide was used as a no-growth control. Metabolic capacity (indicating viability) was measured by incubation with 0.45 mg/mL methylthiazolyldiphenyl-tetrazolium bromide (MTT; Sigma M2128) for two hours followed by crystal solubilisation in SDS.

The test system of data set [4] is P. berghei liver stage schizonts. Nature of the data set: P. berghei liver stage parasite size and number (fluorescence microscopy) in Huh7 cells. Type of data set: cell-based, Plasmodium berghei. As to conditions: for Smaller parasite size (reduction): 48 hours post-infection, vs DMSO. As for the experimental part:
(§3) Huh7 cells were seeded at a density of 10 000 cells per well, or 20 000 per collagen-coated coverslip. […] Uninfected wells served as a control for background luminescence. […] Data are presented as a percentage of the size or parasite number of the solvent control to normalize for differences between experiments. For cell images presented in the figure, images were collected under optimal exposure settings to ensure features were visible. Individual cells were cropped from larger images with Fiji ImageJ, and the brightness was adjusted while ensuring that no fluorescence was removed. No other manipulations were performed.

Data set [5] relates to P. falciparum gametocytes (stage III-IV). Nature of the data set: Gametocyte viability assay (MitoTracker, flow cytometry). Type of data set: cell-based, Plasmodium falciparum.
Source text: Gametocyte assays begun eight days post-invasion (Stage III-IV).
as §1
For orientation: A flow cytometer gives signals particle by particle.

Another data set concerns asexual P. falciparum. Nature of the data set: Plasmodium growth inhibition assay (SYBR Safe), asexual stages. Type of data set: cell-based, Plasmodium falciparum. As to conditions: for IC90: read-out: IC90. How it is done: Compounds or solvent controls (DMSO, ethanol, or ethyl acetate) were serially diluted 2-fold across flat-bottom 96-well plates. Complete culture media without compound was used as a negative control. Chloroquine (100-200 nM) {Sigma C6628} was used as a positive control to determine background fluorescence. The parasitaemia of a culture containing predominantly ring stage parasites was counted by Giemsa smear. The parasitaemia was adjusted to 1% by addition of fresh uRBCs, and added to the plate at a final haematocrit of 1%, with 200 μL per well. The plates were incubated at 37° C. under humid microaerophilic conditions. […] Fluorescence was read at 490 nm excitation/520 nm emission on a FLUOstar Optima fluorescence plate reader {BMG Labtech}.
Growth inhibition data were normalised by subtracting background fluorescence from a no-growth control (high drug concentration or time=0 measurement as specified), and expressed as a percentage of the growth in the negative control (media alone or solvent control) either at the indicated timepoint, or to the highest measurement reached during the assay.
P. falciparum asexual parasite assays begun with ring-stage parasites at 1% parasitaemia and 1% haematocrit. 200 nM chloroquine (Sigma C6628) was used as a no-growth control. […] 17]; 8 (2):e54974).
as §1

For data set [6], the system named is human foreskin fibroblasts (HFF). Nature of the data set: HFF growth inhibition assay (SYBR Safe). The format is cell-based. How it is done: Cells were incubated with a serial dilution of each compound, or media/DMSO alone. The protein synthesis inhibitor cycloheximide (10 μg/mL) was used as a positive control to determine background fluorescence. Approximately 5000 cells were seeded in each well. […] Plates were transferred to a −18° C. freezer. […] Fluorescence was read at 490 nm excitation/520 nm emission on a FLUOstar Optima fluorescence plate reader.
HFF cell growth inhibition assays began with 5000 cells per well. 10 μg/mL cycloheximide was used as a no-growth control.

Another data set has as its system P. berghei liver stages. Nature of the data set: P. berghei liver stage growth assay (luciferase) in Huh7 cells. The format is cell-based, Plasmodium berghei. As for the experimental part:
as §3, §1

Data set [7] has as its system P. falciparum CAM3.II (mutated Kelch-13, resistant). Nature of the data set: Ring stage survival assay, resistant strain. As to conditions: 700 nM for six hours, then 66 hours without drug. Type of data set: cell-based, Plasmodium falciparum. The text has this: (§4) The inventors tested these compounds in a ring stage survival assay, which allows the detection of resistant parasites against this […] drug and is the standard method for investigating resistance to artemisinin and its derivatives (Witkowski B, Menard D, Amaratunga C. Fairhurst R. Ring-stage Survival Assays (RSA) to evaluate the in-vitro and ex-vivo susceptibility of Plasmodium falciparum to artemisinins Procedure. Inst Pasteur du Cambodge—Natl Institutes Heal [Internet]. 2013 Sep. 11 [cited 2022 Jun. 19]; Procedure; available from: https://www.wwarn.org/sites/default/files/INV10-Standard-Operating-Procedure-Ring-Stage-Survival-Assays.pdf). This assay involves a short treatment window against newly-invaded ring stage parasites, followed by removal of drug pressure to mimic the clearance of the drug from plasma. We utilised two parasite strains: an isolate from Cambodia (CAM3.II) with a mutated Kelch-13 conferring resistance, and a genetically modified revertant of this strain (CAM3.IIREV) conferring drug susceptibility (Straimer J, Gnädig N F, Witkowski B, Amaratunga C, Duru V, Ramadani A P, et al. K13-propeller mutations confer artemisinin resistance in Plasmodium falciparum clinical isolates. Science (80-) [Internet]. 2015 Jan. 23 [cited 2022 Jun. 19]; 347(6220):428-31; available from: https://www.science.org/doi/10.1126/science.1260867).
(§5) Following tight synchronisation, CAM3.II and CAM3.IIREV ring stage parasites (0-3 hours post invasion) at 1% parasitaemia and 2% haematocrit were incubated with 700 nM of compounds or solvent-only controls for exactly six hours, before removing the drug, thoroughly washing in RPMI, and returning to culture conditions for a further 66 hours. Some cells were treated with 700 nM artesunate for 72 hours as a no-growth control. DNA replication (indicating growth) was measured at the specified time using SYBR Safe DNA Gel Stain. Microscope slide smears of each condition were stained with 10% v/v Giemsa and examined under a light microscope (1 000× magnification); with ‘viable’ (morphologically normal) and ‘non-viable’ (morphologically aberrant; vacuolated or pyknotic) parasites distinguished according to standard protocol (Witkowski B, Menard D, Amaratunga C, Fairhurst R. Ring-stage Survival Assays (RSA) to evaluate the in-vitro and ex-vivo susceptibility of Plasmodium falciparum to artemisinins Procedure. Inst Pasteur du Cambodge—Natl Institutes Heal [Internet]. 2013 Sep. 11 [cited 2022 Jun. 19]; Procedure. Available from: https://www.wwam.org/sites/default/files/INV10-Standard-Operating-Procedure-Ring-Stage-Survival-Assays.pdf). Images were captured using a Leica ICC50 camera, with a resolution of 76 nm per pixel.

The test system of data set [8] is P. falciparum CAM3.IIREV (susceptible). Nature of the data set: Ring stage survival assay, susceptible revertant strain. The format is cell-based, Plasmodium falciparum. As to conditions: 700 nM for six hours, then 66 hours without drug.
Source text: as §4, §5

For data set [9] the following is noted: in vivo; cited from earlier work.
The nature of data set [10]: HEK293 cell viability assay (MTT). Type of data set: cell-based, human. As to conditions: human, 72 hours, FIG. 21E, conjugate = BC75D, read-out: IC50, HEK293 cytotoxicity. How it is done: as §2
Data set [11] concerns chloroquine sensitive P. falciparum strains 3D7 and C2_GC03. Nature of the data set: Growth inhibition of chloroquine sensitive P. falciparum strains. Type of data set: cell-based, Plasmodium falciparum. As to conditions: FIG. 21B/21C. How it is done: (§6) Growth inhibition was investigated according to methods described by Smilkstein et al. (2004) with modifications by Spry et al. (2013). Compounds or solvent controls (DMSO, ethanol, or ethyl acetate) were serially diluted 2-fold across flat-bottom 96-well plates. Complete culture media without compound was used as a negative control. Chloroquine (100-200 nM) {Sigma C6628} was used as a positive control to determine background fluorescence. The parasitaemia of a culture containing predominantly ring stage parasites was counted by Giemsa smear. The parasitaemia was adjusted to 1% by addition of fresh uRBCs, and added to the plate at a final haematocrit of 1%, with 200 μL per well. The plates were incubated at 37° C. under humid microaerophilic conditions. After 72 hours (or the indicated timepoint), the plates were transferred to a −18° C. freezer to stop the assay and lyse cells. Plates were thawed and lysate was mixed 1:1 with SYBR Safe DNA Gel Stain {Invitrogen 33102}(final concentration 1/10000) diluted in lysis buffer (20 mM TRIS, 5 mM EDTA, 0.008% w/v Saponin, 0.08% w/v Triton-X 100, pH 7.5). Fluorescence was read at 490 nm excitation/520 nm emission on a FLUOstar Optima fluorescence plate reader {BMG Labtech}. […]

Data set [12] deals with chloroquine resistant P. falciparum strain C4_Dd2. Nature of the data set: Growth inhibition of chloroquine resistant P. falciparum strain. As to conditions: 72 hours, FIG. 21D; conjugate = BC75D. The format is cell-based, Plasmodium falciparum. How it is done:
as §6

What is called IC90 is the concentration needed for an effect of 90%. `COc1cc(NC(C)CCCNC(=O)CCC(=O)O[C@H]2CC[C@H]3[C@@H]4CC=C5C[C@@H](O)CC[C@]5(C)[C@H]4CC[C@]23C)c2ncccc2c1` (stereo partly drawn) [C-17-prim, 3β-Hydroxyandrost-5-en-17β-yl succinate-primaquine amide]: in [1] (72 hours), the “Fold lower IC50 than primaquine” value is on record as around 3.5 fold. Besides, the IC50 in [1] (Toxoplasma gondii, 72 h, read-out: IC5 against T. gondii) was 2.8 µM; in [5] (Plasmodium falciparum, 48 h, read-out: IC50, gametocyte viability), 6.9 µM; with asexual P. falciparum (Plasmodium falciparum, 24 hours, starting with ring-stage parasites, FIG. 14B, read-out: IC50), 3.1 µM; with P. berghei liver stages (Plasmodium berghei, Huh-7, 48 hours of treatment from sporozoite inoculation, Huh7 cells, FIG. 16A) it was 0.2 µM. Also, the “Cell viability over the range of concentrations” value in data set [2] is above 50%. The “Concentration at which cytotoxic effect was detected” value in [2] (effect on cellular integrity / modest cytotoxicity) was found to be 3 µM. In addition, the “Concentration at which gradual cytotoxicity emerges” value in [3] stood at 10 µM. Further, the “Smaller parasite size (reduction)” value stood at 48% in [4] (0.3 μM) and 90% in [4] (3 μM). In addition, the “Parasite number (per coverslip)” value in data set [4] (0.3 or 3 μM, compared to the same concentration of primaquine or DMSO-only control) is recorded as “significantly lower”. For the same molecule, the entries for the “Fold reduction in IC50 compared to primaquine alone” value (in data set [5] (48 hours); in the data set with P. berghei liver stages (48 hours)) were 9 fold and around 15 fold, respectively. Also, the “Fold lower IC50 than primaquine alone” value with asexual P. falciparum is given as around 4 fold. Also, the “Fold difference in IC90 vs primaquine” value in the data set on asexual P. falciparum (24 hours) is around 8 fold. Further, the “Hill slope of inhibitory curve” value with asexual P. falciparum (24 hours) is −4.56; in the data set on asexual P. falciparum (72 hours), −4.20. Moreover, the IC90 came out at 5 µM with asexual P. falciparum (Plasmodium falciparum, 24 hours) and 4 µM with asexual P. falciparum (Plasmodium falciparum, 72 hours exposure time). The “Concentration with substantial effect on fibroblast growth” value in data set [6] (72 hours) came out at 10 µM. In data set [6] (72 hrs), the “Maximal inhibition of HFF growth at the range of concentrations tested” value is at most 30%.
On to `C[C@H]1[C@H](OC(=O)CCC(=O)O)O[C@@H]2O[C@@]3(C)CC[C@H]4[C@H](C)CC[C@@H]1[C@@]24OO3` [artesunate, reference compound], for which the “Morphology in Giemsa-stained smears” value is “a combination of morphologically normal parasites and morphologically aberrant pyknotic or vacuolated forms” in [7]; “only morphologically aberrant parasites were present” in data set [8]. The “Parasite survival (DNA replication)” value in [7] (FIG. 17B) is > 30% and ~30%. Further, the Half-life in blood in data set [9] is 30 to 90 min.
On to `CCN(CCO)CCCC(C)Nc1ccnc2cc(Cl)ccc12` (centres unmarked) [hydroxychloroquine, reference compound], for which, in data set [10] (HEK293 cells), the IC50 at 72 h turned out to be 38.4 µM. Moreover, the “Fold better efficacy than hydroxychloroquine-steroid conjugates” value in data set [11] is listed as 1.4-1.6 fold.
For `CCN(CCCC(C)Nc1ccnc2cc(Cl)ccc12)CCOC(=O)CCC(=O)O[C@H]1CC[C@H]2[C@@H]3CC=C4C[C@@H](O)CC[C@]4(C)[C@H]3CC[C@]12C` (some centres unmarked) [hydroxychloroquine-steroid conjugate], the “Times more effective at killing resistant parasites than hydroxychloroquine” value in data set [12] was determined as 2.6 fold. For the same molecule, the IC50 at 72 h in [10] is 13 µM.
